Assay results taken from US12391679B2, “Benzamide-substituted bicyclic imidazo- and pyrazolo-fused -pyridine, -pyrimide, and -pyridazine compounds for treatment of inflammatory diseases” (ONCO3R Therapeutics BV, priority 2019, dated 2025).

How the values were obtained:
Assay type in all cases: biochemical
[1] = molecular target: T1, SIK1 (Homo sapiens, UniProt P57059); assay: 33P radioactive kinase assay, SIK1
T1 construct: purchased Carna Biosciences 02-131
Procedure: (§1) The principle of the ^33P radioactive kinase assay consists in measuring the incorporated ^33P into the substrate AMARA peptide when phosphorylated by SIK1, SIK2 or SIK3 using [^33P]-g-ATP, which correlates with kinase activity.
(§2) The test compounds are prepared as a serial dilution of 10 point dose responses with 1/5 dilution steps in 100% DMSO starting from 2 mM highest concentration, diluted 1/20 in water and 5 μL is transferred to the assay plates (Greiner, Cat #651201).
(§3) 1% DMSO and 10 μM staurosporine final concentrations are used as negative and positive controls.
(§4) 11 μL of enzyme-substrate mixture is added on the assay plates. The reactions are started by adding 9 μL ATP mixture, consisting of non-labeled and ^33P-labeled ATP, on the assay plates.
(§5) The reactions are stopped by adding 25 μL phosphoric acid (150 mM) to the reactions.
(§6) The completely terminated kinase reactions are transferred using a harvester on pre-wetted UniFilter-96 plates (UniFilter-96 GF/B, PerkinElmer Inc., Cat #6005177).
(§7) After harvesting the kinase reactions, the filter plates are washed 6 times with phosphoric acid (75 mM). The back of the UniFilter-96 plates are sealed and 40 μL MicroScint-20 (PerkinElmer Inc., Cat #6013621) is added to each well. The top of the plates are sealed with TopSeal-A. Read-out is performed with a TopCount instrument (PerkinElmer Inc.).
(§8) Raw data are generated following the read-out performed on the TopCount, plotted to generate dose response curves to calculate percentage inhibition (PIN) and average IC50 for each SIK homologue which are reported in the table below.

[2] = molecular target: T2, SIK2 (Homo sapiens, UniProt Q9H0K1); assay: 33P radioactive kinase assay, SIK2; further: AMARA 5 µM, 10 µM ATP
T2 construct: purchased ThermoFisher Scientific PV4792
Procedure: as §1, §2, §3, §4, §5, §6, §7, §8

[3] = molecular target: T3, SIK3 (Homo sapiens, UniProt Q9Y2K2); assay: 33P radioactive kinase assay, SIK3; conditions: 33P radioactive assay; AMARA 7 μM; 15 μM ATP; 80 min; average IC50
T3 construct: purchased SignalChem S12-11G-100
Procedure: as §1, §2, §3, §4, §5, §6, §7, §8

T2 sequence (Q9H0K1 whole entry): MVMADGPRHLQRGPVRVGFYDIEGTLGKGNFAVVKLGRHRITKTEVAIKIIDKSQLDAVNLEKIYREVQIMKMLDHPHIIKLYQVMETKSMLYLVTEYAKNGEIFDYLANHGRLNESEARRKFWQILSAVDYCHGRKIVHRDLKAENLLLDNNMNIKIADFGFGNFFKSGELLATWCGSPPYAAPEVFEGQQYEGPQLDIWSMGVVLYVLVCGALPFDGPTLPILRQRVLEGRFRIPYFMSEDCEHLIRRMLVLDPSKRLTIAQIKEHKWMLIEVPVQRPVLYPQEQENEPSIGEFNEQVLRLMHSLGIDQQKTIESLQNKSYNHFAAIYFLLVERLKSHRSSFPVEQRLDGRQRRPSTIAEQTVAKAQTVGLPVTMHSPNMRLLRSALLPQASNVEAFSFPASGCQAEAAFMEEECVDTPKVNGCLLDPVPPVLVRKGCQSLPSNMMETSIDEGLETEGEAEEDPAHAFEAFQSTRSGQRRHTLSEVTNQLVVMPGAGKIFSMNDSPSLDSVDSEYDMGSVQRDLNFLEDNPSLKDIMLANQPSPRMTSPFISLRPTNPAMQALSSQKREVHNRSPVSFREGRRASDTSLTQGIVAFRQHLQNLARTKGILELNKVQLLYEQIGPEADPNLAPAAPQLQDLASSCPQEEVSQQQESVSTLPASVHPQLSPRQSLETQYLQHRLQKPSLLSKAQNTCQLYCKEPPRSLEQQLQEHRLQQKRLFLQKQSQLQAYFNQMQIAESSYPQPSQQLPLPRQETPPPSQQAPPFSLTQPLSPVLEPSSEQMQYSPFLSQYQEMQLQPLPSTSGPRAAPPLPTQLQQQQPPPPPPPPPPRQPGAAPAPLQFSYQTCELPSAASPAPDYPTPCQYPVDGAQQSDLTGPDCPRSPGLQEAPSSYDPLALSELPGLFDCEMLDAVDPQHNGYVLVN
T3 sequence (Q9Y2K2 59-365 limits assumed): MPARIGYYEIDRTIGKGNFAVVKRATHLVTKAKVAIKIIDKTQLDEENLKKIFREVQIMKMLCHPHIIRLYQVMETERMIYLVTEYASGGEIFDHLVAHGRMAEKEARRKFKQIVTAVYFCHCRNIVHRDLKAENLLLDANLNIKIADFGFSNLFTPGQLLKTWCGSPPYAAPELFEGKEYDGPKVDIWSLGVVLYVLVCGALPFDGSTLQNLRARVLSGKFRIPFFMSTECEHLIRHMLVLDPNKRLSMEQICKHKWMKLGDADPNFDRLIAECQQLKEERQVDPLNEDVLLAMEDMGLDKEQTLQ
T1 sequence (P57059 whole entry): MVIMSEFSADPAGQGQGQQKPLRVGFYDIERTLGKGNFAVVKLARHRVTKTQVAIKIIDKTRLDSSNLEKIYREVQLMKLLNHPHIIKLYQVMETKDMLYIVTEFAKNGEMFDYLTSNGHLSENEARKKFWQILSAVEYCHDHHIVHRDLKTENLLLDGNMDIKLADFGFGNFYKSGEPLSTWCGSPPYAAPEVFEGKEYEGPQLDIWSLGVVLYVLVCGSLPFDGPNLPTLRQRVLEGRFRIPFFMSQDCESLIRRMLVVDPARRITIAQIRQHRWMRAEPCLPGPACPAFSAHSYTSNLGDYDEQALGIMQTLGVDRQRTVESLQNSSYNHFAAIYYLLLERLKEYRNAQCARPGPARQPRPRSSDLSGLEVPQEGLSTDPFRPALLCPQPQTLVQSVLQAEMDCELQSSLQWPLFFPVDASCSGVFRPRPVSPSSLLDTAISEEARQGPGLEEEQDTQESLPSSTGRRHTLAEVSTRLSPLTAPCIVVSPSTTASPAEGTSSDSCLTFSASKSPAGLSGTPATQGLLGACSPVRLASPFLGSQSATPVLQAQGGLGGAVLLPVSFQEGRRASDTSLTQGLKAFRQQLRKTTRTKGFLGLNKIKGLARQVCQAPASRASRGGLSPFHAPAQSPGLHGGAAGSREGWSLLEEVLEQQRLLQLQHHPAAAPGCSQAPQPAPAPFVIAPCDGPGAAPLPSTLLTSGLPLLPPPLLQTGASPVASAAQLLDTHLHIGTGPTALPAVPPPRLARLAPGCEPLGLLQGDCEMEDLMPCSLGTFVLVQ

SMILES	IC50 [1]	IC50 [2]	IC50 [3]
COc1cc(-c2cnc3cc(C(C)(C)C(N)=O)ccn23)cc(OC)c1C(=O)NC1CC1 [Cpd 29, 4-[7-(2-amino-1,1-dimethyl-2-oxo-ethyl)imidazo[1,2-a]pyridin-3-yl]-N-cyclopropyl-2,6-dimethoxy-benzamide]	> 500 nM	> 500 nM	10 to 100 nM
COc1cc(-n2cnc3cc(C4CCCNC4)ccc32)cc(OC)c1C(=O)NCC(F)(F)F (stereo not drawn) [Cpd 8, 2,6-dimethoxy-4-[5-(3-piperidyl)benzimidazol-1-yl]-N-(2,2,2-trifluoroethyl)benzamide]	> 500 nM	> 500 nM	100 to 500 nM
COc1cc(-c2cnc3cc(C4CCCN(C(=O)OC(C)(C)C)C4)ccn23)cc(OC)c1C(=O)NCC(F)(F)F (stereo not drawn) [Cpd 21, tert-butyl 3-[3-[3,5-dimethoxy-4-(2,2,2-trifluoroethylcarbamoyl)phenyl]imidazo[1,2-a]pyridin-7-yl]piperidine-1-carboxylate]	> 500 nM	100 to 500 nM	10 to 100 nM
COc1cc(-n2cnc3cc(C4CCCN(C(=O)OC(C)(C)C)C4)ccc32)cc(OC)c1C(=O)NCC(F)(F)F (stereo not drawn) [Cpd 7, tert-butyl 3-[1-[3,5-dimethoxy-4-(2,2,2-trifluoroethylcarbamoyl)phenyl]benzimidazol-5-yl]piperidine-1-carboxylate]	> 500 nM	> 500 nM	> 500 nM
CCNC(=O)c1c(OC)cc(-c2cnc3cc(C(C)(C)C(N)=O)ccn23)cc1OC [Cpd 31, 4-[7-(2-amino-1,1-dimethyl-2-oxo-ethyl)imidazo[1,2-a]pyridin-3-yl]-N-ethyl-2,6-dimethoxy-benzamide]	> 500 nM	> 500 nM	100 to 500 nM
COc1cc(-n2cnc3cc(C4CCCN(CC#N)C4)ccc32)cc(OC)c1C(=O)NCC(F)(F)F (stereo not drawn) [Cpd 9, 4-[5-[1-(cyanomethyl)-3-piperidyl]benzimidazol-1-yl]-2,6-dimethoxy-N-(2,2,2-trifluoroethyl)benzamide]	> 500 nM	> 500 nM	100 to 500 nM
COc1cc(-n2cnc3cc(C(C)(C)C#N)ccc32)cc(OC(F)F)c1C(=O)NC1CC1 [Cpd 12, 4-[5-(1-cyano-1-methyl-ethyl)benzimidazol-1-yl]-N-cyclopropyl-2-(difluoromethoxy)-6-methoxy-benzamide]	> 500 nM	> 500 nM	100 to 500 nM

Other lines, results leading:

IC50 [1]	IC50 [2]	IC50 [3]	SMILES
> 500 nM	> 500 nM	100 to 500 nM	COc1cc(-n2cnc3cc(C4CCOCC4)ccc32)cc(OC)c1C(=O)NCC(F)(F)F [Cpd 5, 2,6-dimethoxy-4-(5-tetrahydropyran-4-ylbenzimidazol-1-yl)-N-(2,2,2-trifluoroethyl)benzamide]
> 500 nM	> 500 nM	> 500 nM	COc1cc(-n2cnc3cc(C4CCN(C)CC4)ccc32)cc(OC)c1C(=O)NCC(F)(F)F [Cpd 1, 2,6-dimethoxy-4-[5-(1-methyl-4-piperidyl)benzimidazol-1-yl]-N-(2,2,2-trifluoroethyl)benzamide]
> 500 nM	> 500 nM	100 to 500 nM	COc1cc(-n2cnc3cc(C4CCN(CC#N)CC4)ccc32)cc(OC)c1C(=O)NCC(F)(F)F [Cpd 4, 4-[5-[1-(cyanomethyl)-4-piperidyl]benzimidazol-1-yl]-2,6-dimethoxy-N-(2,2,2-trifluoroethyl)benzamide]
> 500 nM	100 to 500 nM	100 to 500 nM	COc1cc(-n2cnc3cc(C4CCNCC4)ccc32)cc(OC)c1C(=O)NCC(F)(F)F [Cpd 3, 2,6-dimethoxy-4-[5-(4-piperidyl)benzimidazol-1-yl]-N-(2,2,2-trifluoroethyl)benzamide]
> 500 nM	100 to 500 nM	100 to 500 nM	COc1cc(-n2cnc3cc(C4CCN(C(=O)OC(C)(C)C)CC4)ccc32)cc(OC)c1C(=O)NCC(F)(F)F [Cpd 2, tert-butyl 4-[1-[3,5-dimethoxy-4-(2,2,2-trifluoroethylcarbamoyl)phenyl]benzimidazol-5-yl]piperidine-1-carboxylate]
